According to patent US7151096:
Where two headings read alike, the source gives them in different places.

c1cc2cc(c1)OCCCNc1cc(ccn1)-c1ccnc(n1)N2 showed a ring closure, yield of all isomers (from Oc1cccc(Nc2nccc(-c3ccnc(NCCCBr)c3)n2)c1, ether bond, K2CO3, acetone, 6.5 mM, 56.0 °C, 3.0 h, 2 steps) of 26.5%.

Compound c1cc2cc(c1)OCCCNc1ncccc1-c1ccnc(n1)N2 has a ring closure, yield of all isomers (from Oc1cccc(Nc2nccc(-c3cccnc3NCCCBr)n2)c1, ether bond, K2CO3, acetone, 19.3 mM, 56.0 °C, 6.0 h, 3 steps) of 34.6%.

Compound O=C1Cc2cccc(c2)Nc2nccc(n2)-c2ccnc(c2)NCCCN1 has a ring closure, yield of all isomers (from NCCCNc1cc(-c2ccnc(Nc3cccc(CC(=O)O)c3)n2)ccn1, amide bond, HATU, DMF, 1.52 mM, 0.0 °C, 3.0 h) of 74.2%.
